Legend:
Assay type in all cases: in vivo, rat
rats [1] = test: Hyperalgesia induced by intraplantar injection of capsaicin; PP, HP, PI tests
Experimental: Injection of capsaicin (10 μg in 50 μl of a 10% solution of Tween 20 in olive oil) produced hyperalgesia, whose peak was at three to six hours after injection and which disappeared at the end of 24 hours. Mechanical hyperalgesia was evaluated using the paw pressure test (PP), which consists in applying a constant pressure of 0.2 kg/cm on the dorsal part of the hind paw. The time lapsed between the application of the pressure and the nociceptive reflex of retraction of the paw was considered as the latency time (or threshold) of mechanical nociceptive. Thermal hyperalgesia was evaluated using the hot-plate (HP) test and the paw immersion (PI) test.
The HP and PI tests were done as in Example 1, the hot-plate having a temperature 52.5±0.3° C. and the hot water container at 48±0.3° C.
The PP and PI tests were done one after the other on the two hind paws observing an interval of five minutes between two consecutive tests.
The rats were sent to the laboratory one week prior to injection so that they would become accustomed to the environment and the tests were done on the rats over two or three days in order to obtain the baseline value for each test before any treatment (detailed description in Kanaan S. A. et al., 1996, Endotoxin-induced local inflammation and hyperalgesia in rats and mice: a new model for inflammatory pain, Pain, 66:373-379).
In the course of the experiments involving the injection […]. of capsaicin, the mean of the measurements done using each pain test (PP, HP or PI) was calculated for each group of rats prior to the injection of the capsaicin (baseline condition) and at different time intervals after injection (3, 6, 9 and 24 hours). TAP was injected (i.p.) thirty minutes before the capsaicin and the latency times of the different pain tests were measured at the same intervals of time after injection of the capsaicin.

rats [2] = test: Fever (rectal temperature) induced by intraperitoneal ET; details: TAP 25 μg i.p. before ET 50 μg i.p.; rectal temperature 1, 3, 6 h; FIG. 4C
Experimental: Protocol 2(b): Different groups of rats (n=5 in each group) were treated in the following fashion • either they received one intraperitoneal injection of 50 μg of ET, • or they were pretreated with the TAP peptide (25 μg, intraperitoneal injection), 30 minutes before an injection of endotoxin.
Rectal temperature was measured at 1 hour, 3 hours and 6 hours.
A control group received an intraperitoneal injection of TAP peptide (25 μg dissolved in 100 μl of saline solution).

rats [3] = test: Visceral pain induced by intraperitoneal injection of capsaicin; 4-level behavioral scale
Experimental: This test consisted of injecting (i.p.) 20 μg of capsaicin in 100 μl of a 10% solution Tween 20 in olive oil in some rats and observing the behavior induced by these injections. A 4-level behavioral scale was designed according to the method described by Giesler G J et al., (1976, Inhibition of visceral pain by electrical stimulation of the periaqueductal gray matter, Pain 2:43-48).
The levels were defined as follows: 0=normal behavior; 1=slight contraction of the abdominal muscles; 2=contraction of one single side and luxation of the haunch dropping; 3=significant contraction of the abdominal muscles and extension of the two rear paws.
For the evaluation of the animals' behavior, each rat was placed in transparent cage placed over a mirror inclined at 45° for optimum observation.
[…] None of the two observers knew the injection administered nor the expected effects.
For the injection i.p. of the capsaicin, the total time corresponding to each behavioral level was measured for the animals having received the capsaicin alone or the capsaicin after the TAP. The variation of the neuropathic manifestations or of the pain tests after the treatments were evaluated by ANOVA then by Bonfrerroni tests done post hoc. The variations of the pain scores with or without treatment were evaluated by the Student bilateral test by assuming a significance level of 5% (p<0.05).

“Glu-Ala-lys-Ser-Gln-Gly-Gly-Ser-Asp (SQGGSD; N-terminal Glu-Ala-Lys; printed: Ser-Gln-Gly-Gly-Ser-Asp) [TAP]” was tested, and the “modification of latency times in the pain tests, TAP alone” value (rats [1]; TAP 25 μg, no capsaicin, FIG. 8 controls) was “did not result in significant modification”, the “effect on capsaicin-induced hyperalgesia at the more elevated dose” value (rats [1]; TAP highest dose i.p. before capsaicin 10 μg i.pl.) was “complete prevention” and the “effect on hyperalgesia induced by intraplantar capsaicin” value (rats [1]; TAP i.p. 1.5 or 25 μg/rat thirty minutes before capsaicin 10 μg, FIG. 8) was “dose-dependent attenuation”. The “effect on ET-induced increase of body temperature” value (rats [2]) was “nullified the process of increase of body temperature”, the “effect on nociception scores induced by capsaicin” value (rats [3]; TAP 50 μg before capsaicin 20 μg i.p., FIG. 9) was “significant shift to the left” and the “time at behavioral level 0” value (rats [3]; TAP 50 μg in 200 μl/rat before capsaicin 20 μg i.p., capsaicin alone 0.2±0.3, 36 minutes observation) was 0.82 ± 0.18 min. The “time at behavioral level 1” value (rats [3]; TAP 50 μg in 200 μl/rat before capsaicin 20 μg i.p., capsaicin alone 2.51±0.45, 36 minutes observation) was 12.89 ± 2.5 min, the “time at behavioral level 3” value (rats [3]; TAP 50 μg in 200 μl/rat before capsaicin 20 μg i.p., capsaicin alone 11.84±0.43, 36 minutes observation) was 6.67 ± 0.09 min and the “time at behavioral level 2” value (rats [3]; TAP 50 μg in 200 μl/rat before capsaicin 20 μg i.p., capsaicin alone 21.5±0.8, 36 minutes observation) was 15.62 ± 0.9 min.
